The values below come from patent US8669247B2, “2,5-disubstituted arylsulfonamide CCR3 antagonists” (Axikin Pharmaceuticals, Inc., priority 2009, dated 2014).

One data set concerns the target T1, CCR3 receptor (UniProt P51677).
T1 sequence (P51677 1-355): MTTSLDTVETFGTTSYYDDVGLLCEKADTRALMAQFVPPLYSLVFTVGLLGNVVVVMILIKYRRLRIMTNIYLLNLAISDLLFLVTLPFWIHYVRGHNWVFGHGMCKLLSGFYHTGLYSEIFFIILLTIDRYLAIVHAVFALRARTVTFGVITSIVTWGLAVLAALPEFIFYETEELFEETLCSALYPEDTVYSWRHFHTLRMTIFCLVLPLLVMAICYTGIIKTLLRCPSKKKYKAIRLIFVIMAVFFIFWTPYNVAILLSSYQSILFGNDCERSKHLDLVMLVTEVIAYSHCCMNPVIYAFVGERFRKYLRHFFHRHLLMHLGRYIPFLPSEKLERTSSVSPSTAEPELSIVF
Description: CCR3 Receptor Binding Assay ([125I]-labeled human eotaxin/CCL11 displacement on cells). On the procedure:
Cells were washed once with PBS and resuspended in a binding buffer (25 mM HEPES pH 7.6, 5 mM MgCl2, 1 mM CaCl2, 0.5% BSA, 0.1% NaN3), […] of cell suspension (2×10^5 cells/well) and 0.1 nM [^125I]-labeled human eotaxin/CCL11 (2000 Ci/mmol specific activity) were mixed in a 96-well U-bottom polypropylene plate, and incubated for 60 min at room temperature for the binding reaction. The cell suspension was then transferred to a filtration plate (#MAFB, Millipore), and washed 3 times with the binding buffer containing 0.5 M NaCl, scintillant added, and the radioactivity was counted on a TopCount (Packard). For the determination of non-specific binding, the cell suspension and [^125I]-labeled human eotaxin/CCL11 were incubated in the presence of 500 nM of unlabeled human eotaxin/CCL11. See, lino et al., “Molecular cloning and functional characterization of cynomolgus monkey (Macaca fascicularis) CC chemokine receptor, CCR3,” Cytokine 2002, 19, 276-286.

Setting [1] is: Free (free form of the compound).
Setting [2] is: HCl: hydrochloric acid salt of the corresponding compound.

Structures are written as SMILES. Where a name gives a salt, the structure may show the parent alone. A value given as a limit tells only on which side of the number the result lay.

The melting point is the temperature of the solid-liquid transition. The compound `N#Cc1ccc(Oc2cc(F)ccc2F)c(S(=O)(=O)N2CCNCC2)c1` (as salt: hydrochloride) [Compound 52, 4-(2,5-Difluorophenoxy)-3-(piperazin-1-ylsulfonyl)benzonitrile] gave a melting point of 125 to 143 °C. Broadly, the Ki is a measure of affinity in units of concentration, obtained from inhibition or displacement. As for `CC(C)N1CCN(S(=O)(=O)c2cc(C#N)ccc2Sc2cc(Cl)ccc2Cl)CC1` [Compound 77, 4-(2,5-Dichlorophenylthio)-3-(4-isopropylpiperazin-1-ylsulfonyl)benzonitrile], the Ki on CCR3 receptor (setting [1]) and at CCR3 receptor (setting [2]) was no more than 10 nM throughout. In the case of `Cc1ccc(C)c(Sc2ccc([N+](=O)[O-])cc2S(=O)(=O)N2CC(C)NC(C)C2)c1` (stereo not drawn) [Compound 105, 1-(2-(2,5-Dimethylphenylthio)-5-nitrophenylsulfonyl)-3,5-dimethylpiperazine], the Ki on CCR3 receptor (setting [1]) is greater than 5 nM. In the case of `Cc1ccc(C)c(Sc2ccc(C#N)cc2S(=O)(=O)N2CCS(=O)(=O)CC2)c1` [Compound 140], at CCR3 receptor (setting [1]), the Ki was greater than 5 nM. `CN1CCCN(S(=O)(=O)c2cc(C#N)ccc2Oc2cc(F)ccc2F)CC1` [Compound 57, 4-(2,5-Difluorophenoxy)-3-(4-methyl-1,4-diazepan-1-ylsulfonyl)benzonitrile]: the Ki at CCR3 receptor (setting [2]) was greater than 5 nM. For the compound `N#Cc1ccc(Oc2cc(F)ccc2F)c(S(=O)(=O)NCCN2CCCC2)c1` [Compound 63, 5-Cyano-2-(2,5-difluorophenoxy)-N-(2-(pyrrolidin-1-yl)ethyl)benzenesulfonamide], the Ki on CCR3 receptor (setting [1]) and on CCR3 receptor (setting [2]) was greater than 5 nM each time. For `CC1CN(S(=O)(=O)c2cc(C#N)ccc2Sc2cc(Cl)ccc2Cl)CC(C)N1` (stereo not drawn) (as salt: hydrochloride) [Compound 79, 4-(2,5-Dichlorophenylthio)-3-(3,5-dimethylpiperazin-1-ylsulfonyl)benzonitrile], the melting point was in the range of 176 to 180 °C. Consider `Cc1ccc(C)c(Sc2ccc(C#N)cc2S(=O)(=O)N2CCSCC2)c1` [Compound 85, 4-(2,5-Dimethylphenylthio)-3-(thiomorpholinosulfonyl)benzonitrile], for which the Ki on CCR3 receptor (setting [1]) is greater than 5 nM. Take `Cc1ccc(C)c(Sc2ccc(C#N)cc2S(=O)(=O)N2CCC(N(C)C)CC2)c1` [Compound 72, 3-(4-(Dimethylamino)piperidin-1-ylsulfonyl)-4-(2,5-dimethylphenylthio)-benzonitrile]: the results for the Ki at CCR3 receptor (setting [1]) and on CCR3 receptor (setting [2]) were greater than 5 nM and 25 to 100 nM, respectively.

In the case of `CN(C)C1CCN(S(=O)(=O)c2cc(C#N)ccc2Sc2cc(Cl)ccc2Cl)CC1` [Compound 83, 4-(2,5-Dichlorophenylthio)-3-(4-(dimethylamino)piperidin-1-ylsulfonyl)benzonitrile], the Ki was 25 to 100 nM at CCR3 receptor (setting [1]) and no more than 10 nM at CCR3 receptor (setting [2]). `CC(C)N1CCN(S(=O)(=O)c2cc(C#N)ccc2Oc2cc(Cl)ccc2Cl)CC1` [Compound 88, 4-(2,5-Dichlorophenoxy)-3-(4-isopropylpiperazin-1-ylsulfonyl)benzonitrile] came in with an inhibitory constant (Ki) at CCR3 receptor (setting [1]) of no more than 10 nM.

Take `N#Cc1ccc(Sc2cc(Cl)ccc2Cl)c(S(=O)(=O)N2CCNCC2)c1` [Compound 76, 4-(2,5-Dichlorophenylthio)-3-(piperazin-1-ylsulfonyl)benzonitrile]: the inhibition constant Ki at CCR3 receptor (setting [1]) and at CCR3 receptor (setting [2]) was no more than 10 nM each time. `CCC(CC)N1CCN(S(=O)(=O)c2cc(C#N)ccc2Oc2cc(Cl)ccc2Cl)CC1` [Compound 89, 4-(2,5-Dichlorophenoxy)-3-(4-(pentan-3-yl)piperazin-1-ylsulfonyl)-benzonitrile] registered a Ki on CCR3 receptor (setting [1]) of 10 to 25 nM. Still for that read-out and setting: in the case of `CC1CN(S(=O)(=O)c2cc(C#N)ccc2Oc2cc(F)ccc2F)CC(C)N1` (stereo not drawn) [Compound 53, 4-(2,5-Difluorophenoxy)-3-(3,5-dimethylpiperazin-1-ylsulfonyl)benzonitrile] it was 25 to 100 nM. As for `O=[N+]([O-])c1ccc(Oc2cc(Cl)ccc2Cl)c(S(=O)(=O)N2CCNCC2)c1` [Compound 147, 1-(2-(2,5-Dichlorophenoxy)-5-nitrophenylsulfonyl)piperazine], the Ki on CCR3 receptor (setting [1]) was greater than 5 nM; at CCR3 receptor (setting [2]), 25 to 100 nM. As to `CC1CCN(S(=O)(=O)c2cc(C#N)ccc2Oc2cc(Cl)ccc2Cl)CC1` [Compound 87, 4-(2,5-Dichlorophenoxy)-3-(4-methylpiperidin-1-ylsulfonyl)benzonitrile], the inhibitory constant (Ki) on CCR3 receptor (setting [1]) was greater than 5 nM.

For the compound `O=[N+]([O-])c1ccc(Oc2cc(Cl)ccc2Cl)c(S(=O)(=O)N2CCC(N3CCCC3)CC2)c1` [Compound 61], at CCR3 receptor (setting [1]), the Ki was 10 to 25 nM. Take `N#Cc1ccc(Oc2cc(F)ccc2F)c(S(=O)(=O)NCCN2CCCCC2)c1` [Compound 64, 5-Cyano-2-(2,5-difluorophenoxy)-N-(2-(piperidin-1-yl)ethyl)benzenesulfonamide]: the Ki on CCR3 receptor (setting [1]) and on CCR3 receptor (setting [2]) was greater than 5 nM each time.

As for `Cc1ccc(C)c(Sc2ccc(C#N)cc2S(=O)(=O)N2CCN(C3CCCC3)CC2)c1` [Compound 69, 3-(4-Cyclopentylpiperazin-1-ylsulfonyl)-4-(2,5-dimethylphenylthio)-benzonitrile], the Ki was in the range of 25 to 100 nM at CCR3 receptor (setting [1]) and 100 to 500 nM on CCR3 receptor (setting [2]). As to `CC(C)N1CCN(S(=O)(=O)c2cc([N+](=O)[O-])ccc2Sc2cc(Cl)ccc2Cl)CC1` [Compound 108, 1-(2-(2,5-Dichlorophenylthio)-5-nitrophenylsulfonyl)-4-isopropylpiperazine], on CCR3 receptor (setting [1]), the Ki was no more than 10 nM. Consider `CC(C)N1CCN(S(=O)(=O)c2cc([N+](=O)[O-])ccc2Oc2cc(Cl)ccc2Cl)CC1` [Compound 107, 1-(2-(2,5-Dichlorophenoxy)-5-nitrophenylsulfonyl)-4-isopropylpiperazine], for which the Ki on CCR3 receptor (setting [1]) is no more than 10 nM. Same read-out and setting: in the case of `CCN1CCN(S(=O)(=O)c2cc([N+](=O)[O-])ccc2Oc2cc(C)ccc2C)CC1` [Compound 102, 1-(2-(2,5-Dimethylphenoxy)-5-nitrophenylsulfonyl)-4-ethylpiperazine] it was greater than 5 nM; in that of `CN1CCN(S(=O)(=O)c2cc([N+](=O)[O-])ccc2Sc2cc(Cl)ccc2Cl)CC1` [Compound 133, 1-(2-(2,5-Dichlorophenylthio)-5-nitrophenylsulfonyl)-4-methylpiperazine], greater than 5 nM; in that of `CN1CCCN(S(=O)(=O)c2cc(C#N)ccc2Oc2cc(Cl)ccc2Cl)CC1` [Compound 92, 4-(2,5-Dichlorophenoxy)-3-(4-methyl-1,4-diazepan-1-ylsulfonyl)benzonitrile], 25 to 100 nM. As to `Cc1ccc(C)c(Oc2ccc(C#N)cc2S(=O)(=O)N2CCNCC2)c1` [Compound 51, 4-(2,5-Dimethylphenoxy)-3-(piperazin-1-ylsulfonyl)benzonitrile], the Ki on CCR3 receptor (setting [1]) fell in the range of 100 to 500 nM; on CCR3 receptor (setting [2]), 25 to 100 nM. Regarding `CCN(CC)CCNS(=O)(=O)c1cc(C#N)ccc1Sc1cc(C)ccc1C` [Compound 73, 5-Cyano-N-(2-(diethylamino)ethyl)-2-(2,5-dimethylphenylthio)-benzenesulfonamide], the Ki on CCR3 receptor (setting [2]) was in the range of 25 to 100 nM. As to `N#Cc1ccc(Oc2cc(F)ccc2F)c(S(=O)(=O)N2CCN(C3CCCC3)CC2)c1` [Compound 56, 3-(4-Cyclopentylpiperazin-1-ylsulfonyl)-4-(2,5-difluorophenoxy)benzonitrile], the Ki on CCR3 receptor (setting [1]) and at CCR3 receptor (setting [2]) was 25 to 100 nM in each case. As for `CC(C)N1CCN(S(=O)(=O)c2cc(C#N)ccc2Oc2cc(F)ccc2F)CC1` [Compound 54, 4-(2,5-Difluorophenoxy)-3-(4-isopropylpiperazin-1-ylsulfonyl)benzonitrile], the figures for the Ki on CCR3 receptor (setting [1]) and on CCR3 receptor (setting [2]) were 100 to 500 nM and 25 to 100 nM, respectively. With `N#Cc1ccc(Oc2cc(Cl)ccc2Cl)c(S(=O)(=O)NCCN2CCOCC2)c1` [Compound 95, 5-Cyano-2-(2,5-dichlorophenoxy)-N-(2-morpholinoethyl)benzenesulfonamide], on CCR3 receptor (setting [1]), the Ki lay in the range of 100 to 500 nM. `CC1CN(S(=O)(=O)c2cc([N+](=O)[O-])ccc2Sc2cc(Cl)ccc2Cl)CC(C)N1` (stereo not drawn) [Compound 103, 1-(2-(2,5-Dichlorophenylthio)-5-nitrophenylsulfonyl)-3,5-dimethylpiperazine]: the Ki at CCR3 receptor (setting [1]) is greater than 5 nM.

For the compound `O=[N+]([O-])c1ccc(Sc2cc(Cl)ccc2Cl)c(S(=O)(=O)N2CCCNCC2)c1` [Compound 127, 1-(2-(2,5-Dichlorophenylthio)-5-nitrophenylsulfonyl)-1,4-diazepane], the Ki on CCR3 receptor (setting [1]) was greater than 5 nM. Same read-out and setting: in the case of `O=C1CN(S(=O)(=O)c2cc([N+](=O)[O-])ccc2Oc2cc(Cl)ccc2Cl)CCN1` [Compound 126, 4-(2-(2,5-Dichlorophenoxy)-5-nitrophenylsulfonyl)piperazin-2-one] it was 10 to 25 nM. On CCR3 receptor (setting [1]), `CCN1CCN(S(=O)(=O)c2cc([N+](=O)[O-])ccc2Sc2cc(C)ccc2C)CC1` [Compound 101, 1-(2-(2,5-Dimethylphenylthio)-5-nitrophenylsulfonyl)-4-ethylpiperazine] registered a Ki greater than 5 nM. Regarding `Cc1ccc(C)c(Sc2ccc([N+](=O)[O-])cc2S(=O)(=O)N2CCN(C3CCCCC3)CC2)c1` [Compound 120, 1-Cyclohexyl-4-(2-(2,5-dimethylphenylthio)-5-nitrophenylsulfonyl)piperazine], on CCR3 receptor (setting [1]), the Ki was greater than 5 nM.
